Measured values from PubChem BioAssay (NCI).
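Compound exposure: 48 hours, 5 concentrations, 96-well plates. GI50 is the concentration that inhibits growth by half. TGI is the concentration that stops growth completely.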

Tests used:
Assay in all cases: growth of human tumour cells (NCI), 48 h
[1] = system: OVCAR-8 ovarian
[2] = system: U251 CNS
[3] = system: A498 renal
[4] = system: HCC-2998 colon
[5] = system: IGROV1 ovarian
[6] = system: SR leukemia
[7] = system: BT-549 breast
[8] = system: SF-295 CNS
[9] = system: HL-60(TB) leukemia
[10] = system: MDA-MB-435

Compound | GI50 [1] [µM] | TGI [1] [µM] | GI50 [2] [µM] | TGI [2] [µM] | GI50 [3] [µM] | TGI [3] [µM] | GI50 [4] [µM] | TGI [4] [µM] | GI50 [5] [µM] | TGI [5] [µM] | GI50 [6] [µM] | TGI [6] [µM] | GI50 [7] [µM] | TGI [7] [µM] | GI50 [8] [µM] | TGI [8] [µM] | GI50 [9] [µM] | TGI [9] [µM] | GI50 [10] [µM] | TGI [10] [µM]
O=C(c1cccs1)c1nc2cc(Cl)ccc2[n+]([O-])c1C(F)(F)F | > 100 | > 100 | > 100 | > 100 | 92 | > 100 | 87.4 | > 100 | > 100 | > 100 | 35.4 | > 100 | > 100 | > 100 | 91.3 | > 100 | > 100 | > 100 | > 100 | > 100
Cn1c(NCC(CN2CCCC2)OC(=O)c2ccccc2)cc(=O)n(C)c1=O (stereo not drawn) | > 100 | > 100 | > 100 | > 100 | > 100 | > 100 | > 100 | > 100 | > 100 | > 100 | > 100 | > 100 | > 100 | > 100 | > 100 | > 100 |  |  | > 100 | > 100
CCN1C(=O)N(CC)C2C1NC(=S)N2/N=C/C=C/c1ccccc1OC (stereo not drawn) | 0.0378 | > 100 | 0.0427 | > 100 | 0.0295 | 0.0888 | 0.0343 | 16.2 | 0.0411 | > 100 | 0.0387 | > 100 | 0.0258 | 38.2 | 0.0306 | > 100 | 0.0264 | 0.0722 | 0.0189 | 0.0539
O=c1[nH]c(F)nc2c1ncn2C1OC(CO)C(O)C1O (stereo not drawn) | > 100 | > 100 | > 100 | > 100 | > 100 | > 100 | > 100 | > 100 | > 100 | > 100 | > 100 | > 100 | > 100 | > 100 | > 100 | > 100 | > 100 | > 100 | > 100 | > 100
O=c1[nH]c2ccccc2n2cc3ccccc3c12 | 5.28 | 33.3 | 3.25 | 13.4 | 11.1 | 26.7 | 5.84 | 20.8 | 10.3 | 25.4 | 2.87 | 7.7 | 18.9 | 64.3 | 17.9 | 35.8 |  |  | 16.3 | 31
O=C(O)c1ccc(Oc2nc3ccccc3s2)cc1 |  | > 100 |  | > 100 |  | > 100 |  |  |  | > 100 |  | > 100 |  | > 100 |  | > 100 |  | > 100 |  | > 100
O=C1/C(=C\c2ccccc2)CN(C(=O)c2ccccc2)C/C1=C\c1ccccc1 | 2.96 | 11.1 | 1.92 | 4.44 | 13 | 27.4 | 1.89 | 3.48 | 2.66 | 6.57 | 0.335 | 2.9 | 1.86 | 3.58 |  |  | 4.29 | 52.7 | 1.61 | 5
